In article PMC6112376, “Comprehensive Analyses and Prioritization of Tox21 10K Chemicals Affecting Mitochondrial Function by in-Depth Mechanistic Studies” (Environmental Health Perspectives, 2018):
Where a name gives a salt, the structure may show the parent alone. Read-outs that look alike come from different tables or passages of the source.

What was measured:
HepG2 cells [1] = details: for IC50: read-out: MMP assays IC50 (µM) HepG2
rat primary hepatocytes [2] = experiment: MMP assay in rat primary hepatocytes; details: for IC50: read-out: MMP assays IC50 (µM) Rat Hepatocytes
HepG2 cells [3] = details: cited from earlier work
rat primary hepatocytes [4] = test system: rat primary hepatocytes
[5] = read-out: MMP assays IC50 (µM) qHTS-HepG2
[6] = HepG2 cells, single number from one experiment
[7] = rat hepatocytes, mean ± SD of three experiments
[8] = read-out: MMP assays IC50 (µM), qHTS-HepG2

Row | Structure (SMILES) | MMP assays efficacy (%) HepG2 (HepG2 cells [1]) | IC50 (HepG2 cells [1]) [µM] | IC50 (rat primary hepatocytes [2]) [µM] | MMP assays efficacy (%) qHTS-HepG2 (HepG2 cells [3]) | IC50 (HepG2 cells [3]; [5]) [µM] | MMP assays efficacy (%) Rat Hepatocytes (rat primary hepatocytes [4]) | MMP assays IC50 (µM) HepG2 (HepG2 cells [1]) | IC50 (rat primary hepatocytes [2]; Rattus norvegicus, Hepatocyte) [µM] | MMP assays IC50 (µM) Rat Hepatocytes (rat primary hepatocytes [2]) | MMP assays IC50 (µM) qHTS-HepG2 (HepG2 cells [3]) | MMP assays efficacy (%) HepG2 (HepG2 cells [1]; [6]) [%] | IC50 (HepG2 cells [1]; [6]) [µM] | IC50 (rat primary hepatocytes [2]; [7]) [µM] | IC50 (HepG2 cells [3]; [8]) [µM] | MMP assays IC50 (µM) Rat Hepatocytes (rat primary hepatocytes [2]; [7])
1 | CC(C)C[C@H]1C(=O)N2CCC[C@H]2[C@]2(O)O[C@](NC(=O)[C@@H]3C=C4c5cccc6[nH]c(Br)c(c56)C[C@H]4N(C)C3)(C(C)C)C(=O)N12 [Bromocriptine mesylate] | -113% | 13.5 | 12.6 ± 1.6 | -111±8% | 11.2 ± 2.78 | -74±34% |  |  |  |  |  |  |  |  | 
2 | N#Cc1c2ccccc2cc2ccccc12 [Compound 9-Cyanoanthracene] | inactive |  |  | -74±32% | 6.85 ± 18.1 | -32±6% | inactive | 18 ± 5.46 |  |  |  |  |  |  | 
3 | CSc1nc(NC2CC2)nc(NC(C)(C)C)n1 [Cybutryne] | inactive |  | 14.3 ± 16 | -81±18% | 20.9 ± 13.9 | -69±43% | inactive |  |  |  |  |  |  |  | 
4 | O=[N+]([O-])c1cccc2ccccc12 [Compound 1-Nitronaphthalene] | inactive |  |  | -40±7% | 59.7 ± 7.06 | -54±17% | inactive | 45.9 ± 14.7 |  |  |  |  |  |  | 
5 | O=C(NC(=O)c1c(F)cccc1F)Nc1ccc(OC(F)(F)C(F)OC(F)(F)F)c(Cl)c1 (centres unmarked) [Novaluron] | inactive |  |  | inactive |  | inactive | inactive |  | inactive | inactive |  |  |  |  | 
6 | O=C1OC(=O)C2C1C1(Cl)C(Cl)=C(Cl)C2(Cl)C1(Cl)Cl (centres unmarked) [Chlorendic anhydride] | inactive |  |  | inactive |  | inactive | inactive |  | inactive | inactive |  |  |  |  | 
7 | O=C(Nc1ccc(Br)cc1)c1cc(Br)cc(Br)c1O [Tribromosalan] |  |  |  |  |  | -96±35% |  |  |  |  | -111 | 0.97 | 0.55 ± 0.36 | 1.12 | 
8 | COc1cc(Cl)ccc1Oc1ccc(Cl)cc1Cl [Methyl triclosan] | -95% | 39.8 | 45.9 ± 14.7 | -79±13% |  | -95±27% |  |  |  |  |  |  |  | 25.5 ± 1.67 | 
9 | CC1(C)C(/C=C(\Cl)C(F)(F)F)C1C(=O)OC(C#N)c1cccc(Oc2ccccc2)c1 (centres unmarked) [Cyhalothrin] | inactive |  |  | -73±14% | 33.6 ± 5.79 | -55±25% | inactive | 33.8 ± 9.96 |  |  |  |  |  |  | 
10 | O=c1c(O)c(-c2ccc(O)c(O)c2)oc2cc(O)cc(O)c12 [Quercetin dihydrate] | -96% | 2.95 | 5.83 ± 4.93 | -98±4% |  | -71±22% |  |  |  |  |  |  |  | 6.2 ± 2.32 | 
11 | O=c1oc2ccccc2c(O)c1C(CC(O)c1ccc(-c2ccc(Br)cc2)cc1)c1ccccc1 (centres unmarked) [Bromadiolone] | -108% | 4.35 | 3.4 ± 0.83 | -105±3% | 16.7 ± 1.13 | -79±51% |  |  |  |  |  |  |  |  | 
12 | CS(=O)(=O)O.CS(=O)(=O)O.N=C(N)c1ccc(/C=C/c2ccc(C(=N)N)cc2O)cc1 | inactive |  | 13.6 ± 8.28 | -57±17% |  | -71±16% | inactive |  |  |  |  |  |  | 2.81 ± 0.9 | 
13 | CC(=O)C1(C)CC2=C(CCCC2(C)C)CC1C (centres unmarked) |  |  |  | -50±18% | 27.3 ± 20.4 | inactive |  |  |  |  | -43 | 35.5 |  |  | inactive
14 | Oc1ccc(C(c2ccc(O)cc2)C(Cl)(Cl)Cl)cc1 | -103% | 10 | 33.2 ± 24.2 | -101±13% | 8.78 ± 1.43 | -89±3% |  |  |  |  |  |  |  |  | 
15 | [F][Sn]([c]1ccccc1)([c]1ccccc1)[c]1ccccc1 [Triphenyltin fluoride] | -104% | 1.78 | 6.17 ± 2.51 | -106±5% |  | -81±23% |  |  |  |  |  |  |  | 0.47 ± 0.31 | 
16 | Nc1ccc(/N=N/c2ccccc2)c(N)n1 [Phenazopyridine hydrochloride] | inactive |  |  | -74±20% |  | -59±26% | inactive | 23.8 ± 1.93 |  |  |  |  |  | 15.7 ± 3.45 | 
17 | O=C1NC(=O)c2cccc3cccc1c23 [1H-Benzo[de]isoquinoline-1,3(2H)-dione] | -77% | 14.1 | 5.56 ± 8.92 | -77±24% | 8.31 ± 3.47 | -43±22% |  |  |  |  |  |  |  |  | 
18 | CC(=O)OCC(=O)[C@@]12OC(C)(C)O[C@@H]1C[C@H]1[C@@H]3C[C@H](F)C4=CC(=O)C=C[C@]4(C)[C@@]3(F)[C@@H](O)C[C@@]12C [Fluocinonide] | inactive |  |  | inactive |  | inactive | inactive |  | inactive | inactive |  |  |  |  | 
19 | Oc1cc2ccccc2c2ccccc12 [Compound 9-Phenanthrol] | -101% | 3.55 | 47.3 ± 10.7 | -101±8% | 1.22 ± 0.56 | -94±31% |  |  |  |  |  |  |  |  | 
20 | O=C1CCCc2c1cc1ccc3cccc4ccc2c1c34 [9,10-Dihydrobenzo[a]pyren-7(8H)-one] | inactive |  | 16.8 ± 7.33 | -90±6% | 9.81 ± 2.08 | -79±35% | inactive |  |  |  |  |  |  |  | 
21 | CN(C)c1ccc(C(=C2C=CC(=[N+](C)C)C=C2)c2ccccc2)cc1.CN(C)c1ccc(C(=C2C=CC(=[N+](C)C)C=C2)c2ccccc2)cc1.O=C(O)C(=O)O.O=C([O-])C(=O)O.O=C([O-])C(=O)O [Malachite green oxalate] | -65% | 27.5 | 8.67 ± 12.3 | -100±20% |  | -44±26% |  |  |  |  |  |  |  | 2.1 ± 1.87 | 
22 | C[C@@H]1C/C=C/C=C/C=C/C=C/[C@H](O[C@@H]2O[C@H](C)[C@@H](O)[C@H](N)[C@@H]2O)C[C@@H]2O[C@](O)(C[C@@H](O)C[C@H]3O[C@@H]3/C=C/C(=O)O1)C[C@H](O)[C@H]2C(=O)O [Natamycin] | inactive |  |  | inactive |  | inactive | inactive |  | inactive | inactive |  |  |  |  | 
